In patent publication US20220146526A1, “METHOD FOR EVALUATING SAMPLE, ANALYSIS METHOD, METHOD FOR DETECTING DEGRADED SAMPLE, MARKER FOR DETECTING DEGRADED BLOOD PLASMA SAMPLE, AND MARKER FOR DETECTING DEGRADED SERUM SAMPLE” (SHIMADZU CORPORATION, priority 2019, published 2022):

What was measured:
Type in all cases: physicochemical, human
[1] = LC/MS of serum sample: number of times of freezing and thawing (Table M); parameters: key to Rate of increase or decrease: detection intensity relative to 1 at 2 freeze-thaw cycles
Procedure, shortened: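 Values are detection intensities relative to serum thawed twice, versus 4, 6 or 10 freeze-thaw cycles. Serum came from blood spun at room temperature, 3500 rpm for 5 minutes. Analysis: electrospray LC/MS in MRM mode, Discovery HS F5-3 column, 40° C, 0.1% formic acid in water and acetonitrile.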

[2] = GC/MS of blood plasma sample: time from blood collection to cooling of blood (Table B); parameters: key to Rate of increase or decrease / Rate of increase or decrease (first value, increase): detection intensity relative to 1 at cooling time ≤1 min; conditions: for Rate of increase or decrease: detection intensity relative to 1 at 1 minute or less, blood collection to cooling 5 minutes; for Increase or decrease: detection intensity, blood collection to cooling 5 minutes or more vs 1 minute or less
Protocol: (§1) At room temperature, 5 mL of blood from a healthy subject was taken into a blood-collecting vessel containing EDTA, and the blood-collecting vessel was inverted for mixing, then cooled, and allowed to stand at 4° C. Here, in order to investigate how the detection intensity of molecules contained in the sample was affected in a case where the time to cooling was set to 5 minutes or more as compared to that in a case where the time to cooling was set to 1 minute or less, preparations were performed under both the former condition and the latter condition. After standing, the blood sample was subjected to centrifugation under a condition of 4° C., 3000 rpm, and 15 minutes. […] After centrifugation, the blood-collecting vessel was left to stand at room temperature for 30 minutes, and the blood plasma was isolated during this 30 minutes. The obtained blood plasma sample was frozen and stored. Here, in order to investigate how the detection intensity of molecules contained in the sample was affected in cases where freezing and thawing was performed 4 times, 6 times, and 10 times after freezing as compared to that in a case where freezing and thawing was performed 2 times after freezing, freezing and thawing was performed under the respective conditions of 2, 4, 6, and 10 times.
(§2) Frozen blood plasma samples and serum samples were subjected to GC/MS or LC/MS. In GC/MS, the blood plasma samples and serum samples were subjected to methoxymation and trimethylsilylation and then introduced to GC-MS.
(§3) GC/MS was conducted using GCMS·TQ8040 (Shimadzu Corporation) that was a GC·MS equipped with AOC·20i (Shimadzu Corporation) as an autosampler.
(§4) Column: BPX5 (inner diameter of 0.25 mm, length of 30 m, and film thickness of 0.25 μm) (SGE)
(§5) Column temperature: maintained at 60° C. for 2 minutes, then raised at 15° C./min, and maintained at 330° C. for 3 minutes.
(§6) Inlet temperature: 250° C.
(§7) Carrier gas control mode: constant linear velocity of 39.0 cm/sec
(§8) Sample introduction method: split (split ratio of 30:1) Injection volume: 1 μL
(§9) Ionization method: electron ionization
(§10) Ionization current: 60 μA
(§11) Interface temperature: 280° C.
(§12) Ion source temperature: 200° C.
(§13) Mode: multiple reaction monitoring (MRM)
Table B presents compounds of which the detection intensity increased or decreased by 30% or more in a case where the time from blood collection to cooling of blood, when a blood plasma sample was analyzed by GC/MS, was set to 5 minutes or more as compared to that in a case where the time was set to 1 minute or less. The rate of increase or decrease in Table B is the value of detection intensity relative to 1 that is the detection intensity in a case where the time from blood collection to cooling is set to 1 minute or less.

[3] = GC/MS of blood plasma sample: time from blood collection to centrifugation (Table A); conditions: blood collection to centrifugation; for Rate of increase or decrease: detection intensity relative to 1 at 15 minutes; for Increase or decrease: detection intensity
Protocol: as §1, §2, §3, §4, §5, §6, §7, §8, §9, §10, §11, §12, §13
The rate of increase or decrease in Table A is the value of detection intensity relative to 1 that is the detection intensity in a case where the time from blood collection to centrifugation is set to 15 minutes.

[4] = LC/MS of blood plasma sample: time from blood collection to centrifugation (Table D); conditions: blood collection to centrifugation
Procedure, shortened: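 Detection intensities are expressed relative to samples centrifuged 15 min after collection (=1), measured by electrospray LC/MS in MRM mode (Discovery HS F5-3, 40 °C, formic acid water/acetonitrile gradient at 0.25 mL/min). EDTA blood from a healthy donor was held at 4 °C, centrifuged at 4 °C, 3000 rpm, 15 min, and plasma frozen.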

[5] = GC/MS of serum sample: time from blood collection to centrifugation (Table G); conditions: blood collection to centrifugation; for Rate of increase or decrease: detection intensity relative to 1 at 15 minutes; for Increase or decrease: detection intensity
Procedure, shortened: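 Values express detection intensity as a ratio to the sample centrifuged 15 minutes after blood collection (taken as 1). Serum was derivatized by methoxymation and trimethylsilylation, then analysed by electron-ionization GC/MS using multiple reaction monitoring on a BPX5 column ramped from 60 to 330° C.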

[6] = GC/MS of serum sample: number of times of freezing and thawing (Table I); parameters: key to Rate of increase or decrease / Rate of increase or decrease (first value, increase): detection intensity relative to 2 freeze-thaw cycles = 1; conditions: for Number of times when compound is affected: detection intensity changed by 30% or more vs 2 times of freezing and thawing
Procedure, shortened: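 Detection intensities are ratios to the value after two freeze–thaw cycles, which is set as 1, compared against 4, 6 and 10 cycles. Analysis used methoxymation and trimethylsilylation derivatization, then GC/MS with EI ionization and multiple reaction monitoring on a BPX5 column. Serum came from blood held at room temperature and spun at 3500 rpm for 5 min.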

[7] = GC/MS of serum sample: time from centrifugation to isolation (Table H); parameters: key to Rate of increase or decrease / Rate of increase or decrease (first value, increase): detection intensity relative to 1 at 30 min centrifugation-to-isolation; conditions: for Increase or decrease: detection intensity
Procedure, shortened: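 Values are GC/MS (EI, MRM) detection intensities of methoxymated/trimethylsilylated serum, normalised to 1 for the 30-min sample. Serum was isolated 30 min, 1 h or 6 h after room-temperature centrifugation (3500 rpm, 5 min) of blood.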

[8] = GC/MS of blood plasma sample: number of times of freezing and thawing (Table C)
Protocol: as §1, §2, §3, §4, §5, §6, §7, §8, §9, §10, §11, §12, §13
The rate of increase or decrease in Table C is the value of detection intensity relative to 1 that is the detection intensity in a case where the number of times of freezing and thawing is set to 2 times.

[9] = 10 times of freezing and thawing, relative to 1 at 2 times, different from individual to individual, first value (increase)
[10] = 10 times of freezing and thawing, relative to 1 at 2 times, different from individual to individual, second value (decrease)
[11] = serum sample, GC/MS, detection intensity vs 2 times of freezing and thawing

Structure (SMILES): O=c1[nH]c(=O)c2[nH]c(=O)[nH]c2[nH]1 [Uric acid]
- Rate of increase or decrease ([1]; 6 times of freezing and thawing, detection intensity relative to 1 at 2 times): 0.70
- Number of times when compound is affected ([1]; serum sample, LC/MS, detection intensity changed by 30% or more vs 2 times of freezing and thawing): 6 times
- Increase or decrease ([1]; serum sample, LC/MS, detection intensity vs 2 times of freezing and thawing): Decrease
- Rate of increase or decrease [2]: 0.49
- Increase or decrease [2]: Decrease
- Rate of increase or decrease ([3]; after 12 hours): 1.89
- Increase or decrease ([3]; after 12 hours vs 15 minutes): Increase
- Rate of increase or decrease ([4]; detection intensity relative to 1 at 15 minutes, after 12 hours): 1.52
- Increase or decrease ([4]; detection intensity, after 12 hours vs 15 minutes): Increase
- Rate of increase or decrease ([5]; after 8 hours): 0.69
- Increase or decrease ([5]; after 8 hours vs 15 minutes): Decrease
- Rate of increase or decrease [6, 9]: 1.33
- Rate of increase or decrease [6, 10]: 0.66
- Number of times when compound is affected ([6]; serum sample, GC/MS): 10 times
- Increase or decrease [6, 11]: Different from individual

Structure (SMILES): Cn1c(=O)[nH]c2ncn(C)c2c1=O [Paraxanthine]
- Increase or decrease [2]: Different from individual
- Rate of increase or decrease (second value, decrease) ([2]; different from individual to individual, individuals with decrease, relative to 1 at 1 minute or less, collection to cooling 5 minutes): 0.67
- Rate of increase or decrease (first value, increase) ([2]; different from individual to individual, individuals with increase, relative to 1 at 1 minute or less, collection to cooling 5 minutes): 2.33
- Rate of increase or decrease ([5]; after 4 hours): 2.98
- Increase or decrease ([5]; after 4 hours vs 15 minutes): Increase
- Rate of increase or decrease [6, 9]: 2.65
- Rate of increase or decrease [6, 10]: 0.63
- Number of times when compound is affected ([6]; serum sample, GC/MS): 10 times
- Increase or decrease [6, 11]: Different from individual
- Increase or decrease ([7]; after 6 hours vs 30 minutes): Different from individual
- Rate of increase or decrease (second value, decrease) ([7]; different from individual to individual, individuals with decrease, relative to 1 at 30 minutes, after 6 hours): 0.61
- Rate of increase or decrease (first value, increase) ([7]; different from individual to individual, individuals with increase, relative to 1 at 30 minutes, after 6 hours): 2.04

Structure (SMILES): O=C[C@H](O)[C@H](O)[C@H](O)CO [Ribose]
- Increase or decrease [2]: Increase
- Increase or decrease ([8]; detection intensity, freezing and thawing 6 times vs 2 times): Different from individual
- Rate of increase or decrease (second value, decrease) ([8]; different from individual to individual, individuals with decrease, relative to 1 at 2 times, freezing and thawing 6 times): 0.70
- Rate of increase or decrease (first value, increase) ([8]; different from individual to individual, individuals with increase, relative to 1 at 2 times, freezing and thawing 6 times): 1.39
- Rate of increase or decrease ([5]; after 4 hours): 0.41
- Increase or decrease ([5]; after 4 hours vs 15 minutes): Decrease
- Rate of increase or decrease ([6]; detection intensity relative to 1 at 2 times, serum, GC/MS, freezing and thawing 4 times): 1.68
- Increase or decrease ([6]; detection intensity, serum, GC/MS, freezing and thawing 4 times vs 2 times): Increase
- Rate of increase or decrease ([7]; detection intensity relative to 1 at 30 minutes, after 1 hour): 1.76
- Increase or decrease ([7]; after 1 hour vs 30 minutes): Increase

Structure (SMILES): NCCS(=O)O [Hypotaurine]
- Rate of increase or decrease [2]: 1.43
- Increase or decrease [2]: Increase
- Rate of increase or decrease ([3]; after 8 hours): 1.36
- Increase or decrease ([3]; after 8 hours vs 15 minutes): Increase
- Rate of increase or decrease ([5]; after 4 hours): 1.69
- Increase or decrease ([5]; after 4 hours vs 15 minutes): Increase

Structure (SMILES): O=C(O)CO [Glycolic acid]
- Rate of increase or decrease [2]: 0.61
- Increase or decrease [2]: Decrease
- Rate of increase or decrease ([5]; after 4 hours): 1.40
- Increase or decrease ([5]; after 4 hours vs 15 minutes): Increase
- Rate of increase or decrease ([6]; 10 times of freezing and thawing, detection intensity relative to 1 at 2 times): 0.66
- Number of times when compound is affected ([6]; serum sample, GC/MS): 10 times
- Increase or decrease [6, 11]: Decrease
